Assay results as given in BigSolDB 2.1.

With C[n+]1ccn(CCOCCn2cc[n+](C)c2)c1.F[P-](F)(F)(F)(F)F.F[P-](F)(F)(F)(F)F the solubility (mole fraction) (in acetone, 283 K) was 0.0599, the solubility (mole fraction) (in acetone, 288 K) was 0.061 and the solubility (mole fraction) (in acetone, 293 K) was 0.0621. It also gave a solubility (mole fraction) (in acetone, 298 K) of 0.0631, a solubility (mole fraction) (in acetone, 303 K) of 0.0641 and a solubility (mole fraction) (in acetonitrile, 283 K) of 0.0726. It also gave a solubility (mole fraction) (in acetonitrile, 288 K) of 0.0749, a solubility (mole fraction) (in acetonitrile, 293 K) of 0.0775 and a solubility (mole fraction) (in acetonitrile, 298 K) of 0.0802. The solubility (mole fraction) (in acetonitrile, 303 K) was 0.0834, the solubility (mole fraction) (in ethanol, 283 K) was 3.2e-05 and the solubility (mole fraction) (in ethanol, 288 K) was 3.8e-05. For the same molecule, the solubility (mole fraction) (in ethanol, 293 K) was 4.7e-05, the solubility (mole fraction) (in ethanol, 298 K) was 5.6e-05 and the solubility (mole fraction) (in ethanol, 303 K) was 6.9e-05. It also gave a solubility (mole fraction) (in methanol, 283 K) of 0.000171, a solubility (mole fraction) (in methanol, 288 K) of 0.000234 and a solubility (mole fraction) (in methanol, 293 K) of 0.000298. The solubility (mole fraction) (in methanol, 298 K) was 0.000376, the solubility (mole fraction) (in methanol, 303 K) was 0.000464 and the solubility (mole fraction) (in water, 283 K) was 0.000118. The solubility (mole fraction) (in water, 288 K) was 0.000157, the solubility (mole fraction) (in water, 293 K) was 0.00021 and the solubility (mole fraction) (in water, 298 K) was 0.000271. The solubility (mole fraction) (in water, 303 K) was 0.000345.
